Test results as given in US20080187490A1, “Methods for Treating Amyotrophic Lateral Sclerosis” (priority 2005, published 2008).
No end group written: not given here.

How the values were obtained:
FcγIIa = test: Reverse ELISA: inhibition of PAP immune complex binding to FcγIIa coated plates; conditions: PAP pre-incubated with peptide one hour; lower OD = more inhibition; positive control 1.599
Text: (§1) For this reason, a “reverse ELISA” technique was used to assess binding of the Fc region to ligands that bind to immune complexed IgG Fc. In a reverse ELISA, the enzyme (e.g., HRP) is not covalently conjugated to the Fc portion of the secondary antibody. Rather, a preformed immune complex of peroxidase-rabbit (or mouse) anti-peroxidase IgG (“PAP” complex) is used. […] In these experiments, an Fe CH2-CH3 cleft binding ligand (e.g., purified human C1q) was bound to microwell plates. In the absence of competitor, PAP complexes bound to the immobilized ligand and the reaction between HRP and its substrate produced a signal. This signal was reduced by polypeptides and compounds provided herein that inhibited PAP binding to the immobilized ligand.
(§2) Once the reverse ELISA protocol was established using the C1q assay, the assay was redesigned using FcγIIa, FcγIIb, and FcγIII in place of C1q. Highly purified FcγIIa, FcγIIb and FcγIII were immunoadsorbed onto plastic microwells. After optimizing the FcγR reverse ELISA system, simple competitive inhibition experiments using polypeptides provided herein were conducted to investigate their ability to inhibit binding of immune complexes to purified FcγR.
(§3) Falcon microtiter plates were coated with 1:10 dilutions of highly purified FcγIIa, FcγIIb and FcγIII and incubated for 24 hours. The plates were washed and then blocked with 5×BSA blocking solution (Alpha Diagnostic International, San Antonio, Tex.) for 24 hours. PAP immune complexes were formed as described above. PAP (100 μl) were pre-incubated with 100 μl of peptide for one hour. PAP/peptide mixtures were added to the FcγR coated plates and incubated for one hour. After washing, plates were incubated with ABTS substrate for 15 minutes and read at 405 nm.

[1] = tested on: apo monomeric mutant SOD1 C57S (mSOD1C57S); test: Reverse ELISA: inhibition of immune complexed IgG (PAP) binding to mSOD1C57S coated plates; conditions: for mSOD1C57S (OD read at 405 nm): PAP pre-incubated with peptide one hour, 60 min on plates, positive control […]; for inhibition of mSOD1C57S binding to PAP (in words): ranking among peptides of Table 3
Protocol: (§4) PAP complexes were prepared as described in Example 2. PAP (100 μl) were pre-incubated with 100 μl of peptide for one hour, and control (200 μl of PAP) also was incubated for one hour. 100 μl of either PAP or PAP/peptide was added to Falcon microtiter plates that had been coated for 24 hours with either 0.8 μg/ml human wtSOD1 (Sigma-Aldrich) or apo (non Cu, Zn containing) monomeric mutant SOD1 C57S (mSOD1C57S). The PAP or peptide/PAP mixtures (100 μl) were added after one hour to either wt SOD1 or mSOD1C57S coated plates for 60 minutes. After washing, plates were incubated with ATBS for 15 minutes and read at 405 nm.

IgG Fc = test: Alanine substitution, binding of SEQ ID NO:16 to IgG Fc; conditions: alanine substitution of IgG Fc Asn-434, His-435, or Tyr-436
human C1q = test: Reverse ELISA: inhibition of PAP immune complex binding to C1q coated plates; conditions: for OD 405 nm: PAP pre-incubated with peptide or C1q one hour, 30 min on C1q plates, lower OD = more inhibition, positive control 2.355; for inhibition of C1q binding (in words): ranking among peptides of Table 1
Text: as §1
PAP complexes were formed mixing 2 μl of rabbit anti-peroxidase (Sigma Chemicals, St. Louis, Mo.) with 50 μl of peroxidase (Sigma-Aldrich, St. Louis, Mo.) in 1 ml distilled water. PAP (100 μl) were pre-incubated with 100 μl of peptide for one hour, 100 μl were pre-incubated with 100 μl of peptide or human C1q (Quidel Corp., San Diego, Calif.) for one hour. The C1q/PAP and peptide/PAP mixtures (100 μl) were incubated with C1q coated plates for 30 minutes. After washing, plates were incubated with ATBS (Quidel Corp.) for 15 minutes and read at 405 nm.

FcγIII = test: Reverse ELISA: inhibition of PAP immune complex binding to FcγIII coated plates; conditions: PAP pre-incubated with peptide one hour; lower OD = more inhibition; positive control 1.588
Text: as §1, §2, §3

FcR = test: FcγR reverse ELISA, overall statement on FcR binding to PAP; conditions: ranking among peptides of Table 2
Protocol: as §2, §3

FcγIIb = test: Reverse ELISA: inhibition of PAP immune complex binding to FcγIIb coated plates; conditions: PAP pre-incubated with peptide one hour; lower OD = more inhibition; positive control 1.394
Text: as §1, §2, §3

human wtSOD1 = test: Reverse ELISA: inhibition of immune complexed IgG (PAP) binding to wt SOD1 coated plates; conditions: for wt SOD1 (OD read at 405 nm): PAP pre-incubated with peptide one hour, 60 min on plates, positive control 2.900; for inhibition of wt SOD1 binding to PAP (in words): ranking among peptides of Table 3
Protocol: as §4

FcγIIa (highly purified) = test: reverse ELISA: PAP without competitor on FcγIIa-coated plate
FcγIIb (highly purified) = test: reverse ELISA: PAP without competitor on FcγIIb-coated plate
[2] = biological target: human C1q (Quidel Corp.) (human) (UniProt P02745); test: reverse ELISA: PAP without competitor on C1q-coated plate
FcγIII (highly purified) = test: reverse ELISA: PAP without competitor on FcγIII-coated plate
[3] = biological target: preformed immune complex of peroxidase-rabbit anti-peroxidase IgG (PAP complex) (rabbit; horseradish) (UniProt P00433); test: competition reverse ELISA: PAP pre-incubated with peptide, residual PAP binding to wt SOD1-coated plate (competitor: immobilized wt SOD1)
[4] = biological target: preformed immune complex of peroxidase-rabbit anti-peroxidase IgG (PAP complex) (rabbit; horseradish) (UniProt P00433); test: competition reverse ELISA: PAP pre-incubated with peptide, residual PAP binding to mSOD1C57S-coated plate (competitor: immobilized mSOD1C57S)
[5] = biological target: preformed immune complex of peroxidase-rabbit anti-peroxidase IgG (PAP complex) (rabbit; horseradish) (UniProt P00433); test: competition reverse ELISA: PAP pre-incubated with peptide, residual PAP binding to C1q-coated plate (competitor: immobilized C1q)
[6] = biological target: preformed immune complex of peroxidase-rabbit anti-peroxidase IgG (PAP complex) (rabbit; horseradish) (UniProt P00433); test: competition reverse ELISA: PAP pre-incubated with peptide, residual PAP binding to FcγIII-coated plate (competitor: immobilized FcγIII)
[7] = biological target: preformed immune complex of peroxidase-rabbit anti-peroxidase IgG (PAP complex) (rabbit; horseradish) (UniProt P00433); test: competition reverse ELISA: PAP pre-incubated with peptide, residual PAP binding to FcγIIb-coated plate (competitor: immobilized FcγIIb)
[8] = biological target: preformed immune complex of peroxidase-rabbit anti-peroxidase IgG (PAP complex) (rabbit; horseradish) (UniProt P00433); test: competition reverse ELISA: PAP pre-incubated with peptide, residual PAP binding to FcγIIa-coated plate (competitor: immobilized FcγIIa)

preformed immune complex of peroxidase-rabbit anti-peroxidase IgG (PAP complex), sequence (P00433 31-338, one chain of several): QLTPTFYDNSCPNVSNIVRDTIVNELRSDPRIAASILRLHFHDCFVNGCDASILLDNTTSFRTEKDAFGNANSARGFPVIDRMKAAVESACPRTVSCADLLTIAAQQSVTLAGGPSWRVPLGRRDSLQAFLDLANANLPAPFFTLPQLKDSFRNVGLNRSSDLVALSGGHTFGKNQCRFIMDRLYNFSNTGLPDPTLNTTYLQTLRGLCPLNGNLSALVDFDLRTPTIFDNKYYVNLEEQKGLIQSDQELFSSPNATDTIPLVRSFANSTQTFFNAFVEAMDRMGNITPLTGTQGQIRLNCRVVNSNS
preformed immune complex of peroxidase-rabbit anti-peroxidase IgG (PAP complex) (rabbit; horseradish), sequence (P00433 31-338, one chain of several): as above
human C1q (Quidel Corp.) (human), sequence (P02745 23-245 limits assumed, chain 1 of 3): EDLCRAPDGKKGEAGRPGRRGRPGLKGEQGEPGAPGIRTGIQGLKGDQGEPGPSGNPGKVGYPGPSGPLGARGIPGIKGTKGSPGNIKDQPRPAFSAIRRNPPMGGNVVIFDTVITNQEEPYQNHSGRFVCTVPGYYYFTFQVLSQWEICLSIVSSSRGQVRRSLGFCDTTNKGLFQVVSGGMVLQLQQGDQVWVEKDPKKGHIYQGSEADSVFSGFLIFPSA
human C1q (Quidel Corp.) (human), sequence (P02746 28-253 limits assumed, chain 2 of 3, further chain): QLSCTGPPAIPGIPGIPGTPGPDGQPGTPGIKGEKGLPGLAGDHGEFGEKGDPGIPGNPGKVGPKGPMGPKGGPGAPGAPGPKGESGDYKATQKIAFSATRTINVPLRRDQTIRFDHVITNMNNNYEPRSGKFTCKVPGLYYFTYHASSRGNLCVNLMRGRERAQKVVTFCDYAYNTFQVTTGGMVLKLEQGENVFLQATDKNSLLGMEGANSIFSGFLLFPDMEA
human C1q (Quidel Corp.) (human), sequence (P02747 29-245 limits assumed, chain 3 of 3, further chain): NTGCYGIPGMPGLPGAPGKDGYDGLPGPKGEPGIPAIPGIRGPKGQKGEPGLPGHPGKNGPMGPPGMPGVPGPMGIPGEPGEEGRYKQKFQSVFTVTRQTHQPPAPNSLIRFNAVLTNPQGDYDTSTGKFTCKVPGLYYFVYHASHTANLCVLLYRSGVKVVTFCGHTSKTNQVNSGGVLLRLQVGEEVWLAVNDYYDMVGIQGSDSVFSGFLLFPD
FcγIIb (highly purified), sequence (P31994 43-310): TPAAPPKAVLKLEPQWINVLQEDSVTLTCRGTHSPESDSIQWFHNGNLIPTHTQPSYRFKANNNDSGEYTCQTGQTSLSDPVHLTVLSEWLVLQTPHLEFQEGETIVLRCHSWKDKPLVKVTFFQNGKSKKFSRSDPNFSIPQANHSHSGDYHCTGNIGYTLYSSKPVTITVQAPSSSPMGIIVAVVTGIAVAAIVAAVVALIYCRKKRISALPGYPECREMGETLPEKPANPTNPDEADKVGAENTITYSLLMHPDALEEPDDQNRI
FcγIIa (highly purified), sequence (P12318 34-317): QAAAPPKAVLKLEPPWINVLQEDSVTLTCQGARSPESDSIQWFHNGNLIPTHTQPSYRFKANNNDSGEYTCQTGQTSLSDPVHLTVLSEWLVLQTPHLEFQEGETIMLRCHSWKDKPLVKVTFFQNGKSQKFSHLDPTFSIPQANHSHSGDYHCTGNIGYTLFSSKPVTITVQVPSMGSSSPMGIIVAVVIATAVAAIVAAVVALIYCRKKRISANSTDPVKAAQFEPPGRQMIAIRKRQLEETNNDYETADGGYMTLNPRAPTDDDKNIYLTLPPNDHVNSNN

OD 405 nm [5] [OD 405 nm] | OD 405 nm [6] [OD 405 nm] | OD 405 nm [7] [OD 405 nm] | OD 405 nm [8] [OD 405 nm] | Molecule | FcγIIa (OD read at 405 nm) (FcγIIa) | OD 405 nm (human C1q) | FcγIII (OD read at 405 nm) (FcγIII) | FcγIIb (OD read at 405 nm) (FcγIIb) | further results
0.389 | 0.67 | 0.496 | 0.509 | APPDCAWHLGELVWCT [Peptide … (SEQ ID NO:16)] |  |  |  |  | OD 405 nm [3]: 0.277 OD 405 nm; OD 405 nm [4]: 0.226 OD 405 nm
0.983 | 0.88 | 0.38 | 0.605 | APPCAFHLGELVWCT (not fully specified; cysteine pairing not given here) [Peptide … (SEQ ID NO:15)] |  |  |  |  | 
0.859 | 0.81 | 0.51 | 0.66 | DCAFHLGELVWCT [Peptide … (SEQ ID NO:3)] |  |  |  |  | 
0.567 | 0.709 | 0.768 | 0.956 | APPCARHLGELVWCT (not fully specified; cysteine pairing not given here) [Peptide … (SEQ ID NO:14)] |  |  |  |  | 
1.15 | 0.53 | 0.562 | 0.658 | APPCAWHLGELVWCT (not fully specified; cysteine pairing not given here) [Peptide … (SEQ ID NO:13)] |  |  |  |  | 

The remaining lines, values behind:

Molecule | OD 405 nm [5] [OD 405 nm] | OD 405 nm [6] [OD 405 nm] | OD 405 nm [7] [OD 405 nm] | OD 405 nm [8] [OD 405 nm] | FcγIIa (OD read at 405 nm) (FcγIIa) | OD 405 nm (human C1q) | FcγIII (OD read at 405 nm) (FcγIII) | FcγIIb (OD read at 405 nm) (FcγIIb) | further results
Ala-Pro-Pro-Asp-Cys-Ala-Trp-His-Leu-Gly-Glu-Leu-Val-Trp-Cys-Thr (APPDCAWHLGELVWCT) [SEQ ID NO:16] |  |  |  |  | 0.509 | 0.389 | 0.670 | 0.496 | mSOD1C57S (OD read at 405 nm) [1]: 0.226; inhibition of mSOD1C57S binding to PAP (in words) [1]: greatest inhibition; inhibition of mSOD1C57S binding to PAP (in words) ([1]; listed as 16): best inhibition; ΔΔG, disruption of binding (IgG Fc): ≥ 1.5 kcal/mol; inhibition of C1q binding (in words) (human C1q): greatest inhibition; inhibition of FcR binding to PAP (in words) (FcR): greatest inhibition; wt SOD1 (OD read at 405 nm) (human wtSOD1): 0.277; inhibition of wt SOD1 binding to PAP (in words) (human wtSOD1): greatest inhibition; inhibition of wt SOD1 binding to PAP (in words) (human wtSOD1; listed as 16): best inhibition
Asp-Cys-Ala-Phe-His-Leu-Gly-Glu-Leu-Val-Trp-Cys-Thr (DCAFHLGELVWCT) [SEQ ID NO:3] |  |  |  |  | 0.660 | 0.859 | 0.810 | 0.510 | 
APPCAFHLGELVWCT (not fully specified; cysteine pairing not given here) [SEQ ID NO:15] |  |  |  |  | 0.605 | 0.983 | 0.880 | 0.380 | 
Asp-Cys-Ala-Trp-His-Leu-Gly-Glu-Leu-Val-Trp-Cys-Thr [SEQ ID NO:2] |  |  |  |  | 0.561 | 1.100 | 0.741 | 0.532 | mSOD1C57S (OD read at 405 nm) [1]: 0.592; inhibition of mSOD1C57S binding to PAP (in words) ([1]; listed as 2): inhibited; wt SOD1 (OD read at 405 nm) (human wtSOD1): 0.292; inhibition of wt SOD1 binding to PAP (in words) (human wtSOD1; listed as 2): inhibited
APPCAWHLGELVWCT [SEQ ID NO:13] |  |  |  |  | 0.658 | 1.148 | 0.530 | 0.562 | 
APPCARHLGELVWCT [SEQ ID NO:14] |  |  |  |  | 0.956 | 0.567 | 0.709 | 0.768 | inhibition of C1q binding (in words) (human C1q): next best result
preformed immune complex of peroxidase-rabbit anti-peroxidase IgG (PAP complex) (from UniProt P00433 31-338) (antibody) |  |  |  |  |  |  |  |  | OD 405 nm (FcγIIa (highly purified)): 1.6 OD 405 nm; OD 405 nm (FcγIIb (highly purified)): 1.39 OD 405 nm; OD 405 nm [2]: 2.35 OD 405 nm; OD 405 nm (FcγIII (highly purified)): 1.59 OD 405 nm
